Experimental data from patent US20150322082A1, “NOVEL COMPOUNDS AS DIACYLGLYCEROL ACYLTRANSFERASE INHIBITORS” (GLAXOSMITHKLINE LLC, priority 2012, published 2015).
Where two headings read alike, the source gives them in different places.

Columns and labels:
[1] = Pharmacokinetic assay in rats (Rat IV and PO PK); assay type: in vivo; settings: male, Crl:CD (SD), plasma; for bioavailability: 2 mg/kg, absolute oral bioavailability from oral and intravenous AUC0-inf, normalized for dose, read-out: Rat % F
Method: Pharmacokinetic Assay in Rats (Rat IV and PO PK)
Male Crl:CD (SD) rats were housed individually in cages with clean bedding in a controlled environment (22 to 25° C. temperature, humidity of 30-70% RH, and a 12 hour light/12 hour dark cycle). Certified rodent diet was provided ad libitum to the rats. Rats were fasted overnight 14-16 hours prior to the dosing on each study day and fed approximately 4 hours post dose (following collection of the 4 hour blood sample). Water was available ad libitum. Normal healthy rats certified by the attending veterinarian were selected and acclimatized for a minimum of three days prior to initiation of the study. Rats were randomized according to the body weight and were identified with body markings.
Intravenous formulation of 1 mg/mL concentration was prepared in DMA (N,N-Dimethylacetamide):TEG (Tetraethylene glycol): Water for Injection (20:40:40) freshly on study day. Animals were dosed through tail vein to achieve a target dose of 1 mg/kg. Oral suspension at a target concentration of 2 mg/mL was prepared freshly in Tween 80 (2%) and 0.5% MC (Methylcellulose) (2:98) on the study day. Animals in the intravenous dosing group were dosed through tail vein to achieve a target dose of 1 mg/kg, and the animals in oral dosing group were dosed orally by an oral gavage needle to achieve a target dose of 2 mg/kg. The actual dose volume was based on the body weight obtained on the study day. On the study day, blood samples (approx. 300 μL/time point) were collected at 0.083, 0.25, 0.5, 1, 2, 4, 8 and 24 hours after intravenous bolus dose, and 0.25, 0.5, 1, 2, 4, 8 and 24 hours after dosing of oral gavage and transferred to a pre-labeled K2EDTA coated tubes. Blood volume was replaced with administration of equal volume of saline through the jugular vein. After collection of blood samples at each time point, the blood samples were stored immediately on ice, in chilled Cryoracks and centrifuged at 2320 g at 4° C. for 15 minutes. The plasma was separated and transferred to pre-labeled micro-centrifuge tubes and promptly frozen at −80+10° C. until bioanalysis.
The plasma concentrations were determined by using a fit for purpose analytical method based on protein precipitation, followed by LC-MS/MS analysis. Analyst Version 1.5.1 software was used to acquire and quantify data. Pharmacokinetic analysis of plasma concentration-time data was performed by a non-compartmental method using Pheonix WinNonLin™ (WLN) Version 6.3.
The area under the plasma concentration-time curve (AUC) from the time of dosing to the last quantifiable time point (AUC0-1) was determined by WLN using linear logarithmic trapezoidal rule. Terminal half life (T1/2) was determined by WLN using linear logarithmic trapezoidal rule for plasma concentrations following intravenous administration. The Absolute oral bioavailability (% F) was calculated by mathematical comparison of oral and intravenous AUC0-inf, normalized for dose.

Human DGAT1 = biological target: T1, Human DGAT1 (Homo sapiens, UniProt O75907); test: Human DGAT1 lipid extraction (LE) assay, inhibition of triacylglycerol product formation; assay type: biochemical; settings: human DGAT1 microsomes from Sf9 cells, read-out: hDGAT LE IC50
T1 construct: made in house; host or cells: Sf9 insect cells (baculovirus); microsomes
T1 sequence (O75907 1-488): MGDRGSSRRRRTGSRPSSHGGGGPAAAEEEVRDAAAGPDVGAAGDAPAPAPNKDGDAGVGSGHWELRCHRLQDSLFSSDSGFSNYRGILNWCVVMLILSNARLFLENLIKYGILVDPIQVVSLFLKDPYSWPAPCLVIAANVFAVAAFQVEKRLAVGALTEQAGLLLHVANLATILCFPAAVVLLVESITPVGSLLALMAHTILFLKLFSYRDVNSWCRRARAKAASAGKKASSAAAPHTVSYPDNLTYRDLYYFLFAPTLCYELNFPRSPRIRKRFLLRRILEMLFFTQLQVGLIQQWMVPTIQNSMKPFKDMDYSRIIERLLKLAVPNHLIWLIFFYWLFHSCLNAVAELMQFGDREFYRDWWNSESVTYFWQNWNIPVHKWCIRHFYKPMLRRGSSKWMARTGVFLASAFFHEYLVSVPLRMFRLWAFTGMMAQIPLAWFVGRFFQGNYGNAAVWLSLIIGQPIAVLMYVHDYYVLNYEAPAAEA
Method: Human DGAT1 was expressed in Sf9 insect cells using a baculovirus expression system. Microsomes were prepared and used as enzyme for in vitro inhibition testing in either of two formats measuring production of coenzyme A or tridecanoylglycerol product, respectively. All steps were performed at 21-23° C. All data for DGAT1 inhibition by test compounds were collected under conditions where product formation was linear with reaction time.
Some assays were performed with inclusion of didecanoylglycerol in the pre-reaction incubation of test compounds and enzyme. […] Extraction of tridecanoylglycerol product was accomplished via addition of 30 uL Microscint-E (Perkin Elmer) and 2 hours of incubation (sealed). Plates were read on a Microbeta Microplate reader. Inhibition was normalized to controls containing DMSO or 10 uM {4-[4-(4-amino-7,7-dimethyl-7H-pyrimido[4,5-b][1,4]oxazin-6-yl)phenyl]cyclohexyl}acetic acid. IC50s were fitted using GraphPad Prism to a sigmoidal dose response.

[2] = intravenous (tail vein), target dose 1 mg/kg, read-out: Rat IV AUC
[3] = oral gavage, target dose 2 mg/kg, read-out: Rat PO AUC

| AUC [1, 2] [ng·h/mL] | AUC [1, 3] [ng·h/mL] | bioavailability [1] [%] | IC50 (Human DGAT1) [nM] | SMILES |
| --- | --- | --- | --- | --- |
| 3380 | 3860 | 30.4 |  | Nc1ncnc2c1C(=O)N(c1ccc3c(ccn3-c3ccc(C(F)(F)F)nc3)c1)CCO2 [WO12/162129, Ex 83, 4-amino-6-(1-(6-(trifluoromethyl)pyridin-3-yl)-1H-indol-5-yl)-7,8-dihydropyrimido[5,4-f][1,4]oxazepin-5(6H)-one] |
|  |  |  | 7.5 | CC(C)(O)Cn1ccc2cc(N3CCOc4ncnc(N)c4C3=O)cc(C3CC3)c21 [Example 40, 4-amino-6-(7-cyclopropyl-1-(2-hydroxy-2-methylpropyl)-1H-indol-5-yl)-7,8-dihydropyrimido[5,4-f][1,4]oxazepin-5(6H)-one] |
| 11700 | 11600 | 54.6 | 11.7 | Cc1cnc(-n2ccc3cc(N4CCOc5ncnc(N)c5C4=O)cc(C4CC4)c32)nc1 [Example 37, 4-Amino-6-(7-cyclopropyl-1-(5-methylpyrimidin-2-yl)-1H-indol-5-yl)-7,8-dihydropyrimido[5,4-f][1,4]oxazepin-5(6H)-one] |
|  |  |  | 23.8 | CCOc1ncc(-n2ccc3cc(N4CCOc5ncnc(N)c5C4=O)ccc32)cn1 [Example 41] |
|  |  |  | 42.3 | COC(C)(C)Cn1ccc2cc(N3CCOc4ncnc(N)c4C3=O)ccc21 [Example 39, 4-amino-6-(1-(2-methoxy-2-methylpropyl)-1H-indol-5-yl)-7,8-dihydropyrimido[5,4-f][1,4]oxazepin-5(6H)-one] |
| 2140 | 4020 | 89 | 29 | CC(C)(O)c1ccc(-n2ccc3cc(N4CCOc5ncnc(N)c5C4=O)ccc32)cn1 [Example 38, 4-Amino-6-(1-(6-(2-hydroxypropan-2-yl)pyridin-3-yl)-1H-indol-5-yl)-7,8-dihydropyrimido[5,4-f][1,4]oxazepin-5(6H)-one] |
| 3780 | 1780 | 12.5 |  | Nc1ncnc2c1C(=O)N(c1ccc3c(ccn3-c3ccc(C(F)(F)F)cn3)c1)CCO2 [WO12/162129, Ex 88, 4-amino-6-(1-(5-(trifluoromethyl)pyridin-2-yl)-1H-indol-5-yl)-7,8-dihydropyrimido[5,4-f][1,4]oxazepin-5(6H)-one] |
| 975 | 2490 | 65.6 |  | Cc1ccc(-n2ccc3cc(N4CCOc5ncnc(N)c5C4=O)ccc32)cn1 [WO12/162129, Ex 102, 4-amino-6-(1-(6-methylpyridin-3-yl)-1H-indol-5-yl)-7,8-dihydropyrimido[5,4-f][1,4]oxazepin-5(6H)-one] |
